pKi: −log10 of the molar value.
Experiments:
[1] = molecular target: T1, Beta-secretase 2 (Homo sapiens, UniProt Q9Y5Z0); experiment: BACE-2 Assay: The compounds of the invention were determined to be potent inhibitors of BACE-2 using the following assay. Inhibitor IC50s at purified human autoBACE-2 are determined in a time-resolved endpoint proteolysis assay that measures hydrolysis of the QSY7-[…]-Eu-amide FRET peptide substrate (BACE-HTRF assay). BACE-mediated hydrolysis of this peptide results in an increase in relative fluorescence (RFU) at 620 nm after excitation with 320 nm light Inhibitor compounds, prepared at 3× the desired final concentration in 1×BACE assay buffer (20 mM sodium acetate pH 5.0, 10% glycerol, 0.1% Brij-35) supplemented with 7.5% DMSO are pre-incubated with an equal volume of autoBACE-2 enzyme diluted in 1×BACE assay buffer (final enzyme concentration 1 nM) in black 384-well NUNC plates for 30 minutes at 30° C. […] DMSO is present at 5% final concentration in the assay. Following laser excitation of sample wells at 320 nm, the fluorescence signal at 620 nm is collected for 400 ms following a 50 μs delay on a RUBYstar HTRF plate reader (BMG Labtechnologies). Raw RFU data is normalized to maximum (1.0 nM BACE/DMSO) and minimum (no enzyme/DMSO) RFU values.
T1 sequence (Q9Y5Z0 whole entry): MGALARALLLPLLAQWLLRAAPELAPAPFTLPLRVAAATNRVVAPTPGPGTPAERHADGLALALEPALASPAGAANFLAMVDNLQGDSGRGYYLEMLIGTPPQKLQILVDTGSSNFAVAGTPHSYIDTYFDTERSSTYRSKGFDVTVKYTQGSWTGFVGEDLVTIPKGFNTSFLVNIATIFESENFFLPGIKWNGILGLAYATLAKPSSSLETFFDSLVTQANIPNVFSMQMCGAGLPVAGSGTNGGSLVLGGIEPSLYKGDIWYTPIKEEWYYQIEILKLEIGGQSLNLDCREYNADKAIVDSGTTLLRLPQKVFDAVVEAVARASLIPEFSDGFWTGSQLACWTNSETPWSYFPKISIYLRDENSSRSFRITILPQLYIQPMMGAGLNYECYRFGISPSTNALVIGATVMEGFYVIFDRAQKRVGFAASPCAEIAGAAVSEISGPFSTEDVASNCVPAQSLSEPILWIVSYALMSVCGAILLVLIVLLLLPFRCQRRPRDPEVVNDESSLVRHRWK

[2] = molecular target: Beta-secretase 1 (Homo sapiens, UniProt P56817); experiment: HTRF FRET Assay: The compounds of the invention were determined to be potent inhibitors of BACE-1 using the following assay.The following reagents were used in this assay. Na+-Acetate pH 5.0; 1% Brij-35; Glycerol; Dimethyl Sulfoxide (DMSO); Recombinant human soluble BACE-1 catalytic domain (>95% pure); APP Swedish mutant peptide substrate (QSY7-APPswe-Eu): QSY7-[…]-Europium-amide.A homogeneous time-resolved FRET assay can be used to determine IC50 values for inhibitors of the soluble human BACE-1 catalytic domain. This assay monitors the increase of 620 nm fluorescence that resulted from BACE-1 cleavage of an APPswedish APPswe mutant peptide FRET substrate (QSY7-[…]-Europium-amide). This substrate contains an N-terminal QSY7 moiety that serves as a quencher of the C-terminal Europium fluorophore (620 nm Em). In the absence of enzyme activity, 620 nm fluorescence is low in the assay and increased linearly over 3 hours in the presence of uninhibited BACE-1 enzyme. Inhibition of BACE-1 cleavage of the QSY7-APPswe-Eu substrate by inhibitors is manifested as a suppression of 620 nm fluorescence.
Chain of Beta-secretase 1 (P56817 whole entry, the tested form may be a part): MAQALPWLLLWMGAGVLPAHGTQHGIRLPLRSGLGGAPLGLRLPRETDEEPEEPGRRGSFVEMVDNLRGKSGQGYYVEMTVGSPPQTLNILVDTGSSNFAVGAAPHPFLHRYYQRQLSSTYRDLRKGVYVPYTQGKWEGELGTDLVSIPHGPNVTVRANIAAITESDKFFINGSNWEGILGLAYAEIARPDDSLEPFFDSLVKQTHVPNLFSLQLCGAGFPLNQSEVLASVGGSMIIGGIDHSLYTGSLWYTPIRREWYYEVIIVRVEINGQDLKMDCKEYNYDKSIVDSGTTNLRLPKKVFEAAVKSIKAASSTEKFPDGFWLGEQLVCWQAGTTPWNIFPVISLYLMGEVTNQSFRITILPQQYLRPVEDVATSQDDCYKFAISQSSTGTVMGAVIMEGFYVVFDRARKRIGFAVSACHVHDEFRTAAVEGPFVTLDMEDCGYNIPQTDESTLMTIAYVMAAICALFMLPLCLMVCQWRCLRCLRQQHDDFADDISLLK

[3] = molecular target: Cathepsin D (Homo sapiens, UniProt P07339); experiment: Cathepsin-D Assay: The following reagents were used in this assay: Na+-Acetate pH 5.0; 1% Brij-35; Dimethyl Sulfoxide (DMSO); Purified human Cathepsin-D (>95% pure); Aspartyl protease peptide substrate AC-Cys(Eu_Chelate)-Gly-Lys-Pro_ile_leu_phe-Phe-Arg-Leu-Lys(QSY7)-ASP-ASP-NH2.As noted above, certain compounds of the invention exhibit good selectivity of BACE-1 over Cathepsin-D. A homogeneous …
Chain of Cathepsin D (P07339 65-162 limits assumed): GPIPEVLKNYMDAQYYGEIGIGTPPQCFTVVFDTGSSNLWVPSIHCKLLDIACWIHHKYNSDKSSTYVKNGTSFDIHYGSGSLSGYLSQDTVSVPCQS
Chain of Cathepsin D (P07339 169-412 limits assumed): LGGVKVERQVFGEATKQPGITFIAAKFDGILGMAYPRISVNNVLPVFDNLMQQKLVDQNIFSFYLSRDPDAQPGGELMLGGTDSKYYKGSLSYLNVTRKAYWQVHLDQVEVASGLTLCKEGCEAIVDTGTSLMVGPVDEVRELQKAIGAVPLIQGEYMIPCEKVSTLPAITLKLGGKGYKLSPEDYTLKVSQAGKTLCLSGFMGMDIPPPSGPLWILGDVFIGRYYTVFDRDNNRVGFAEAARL
Description: This substrate contains an C-terminal QSY7 moiety that serves as a quencher of the N-terminal Europium fluorophore (620 nm Em). In the absence of enzyme activity, 620 nm fluorescence is low in the assay and increased linearly over 1 hour in the presence of uninhibited Cathepsin-D enzyme. Inhibition of Cathespin D cleavage of the Eu-Aspartyl Protease-QSY7 substrate by inhibitors is manifested as a suppression of 620 nm fluorescence.

Row | SMILES | pKi [1] | pKi [2] | pKi [3]
1 | CC#CCOc1cnc2c(Nc3cnc(F)c([C@]4(C)CS(=O)(=O)[C@@](C)(C5CC5)C(N)=N4)c3)nccc2n1 | 7.62 | 8.74 | < 5.03
2 | COc1cnc2c(Nc3ccc(F)c([C@]4(C)CS(=O)(=O)[C@@](C)(C5CC5)C(N)=N4)c3)ccnc2c1 | 7.70 | 7.57 | < 5.03
3 | CC#CCOc1cnc2c(Nc3cnc(F)c([C@]4(C)CS(=O)(=O)[C@@](C)(C5CC5)C(N)=N4)c3)nccc2c1 | 6.92 | 8.55 | < 5.03
4 | CC#CCOc1cnc2c(Nc3cc([C@]4(C)CS(=O)(=O)[C@@](C)(C5CC5)C(N)=N4)c(F)cn3)nccc2n1 | 8.92 | 8.82 | < 5.03
5 | C[C@@]1(c2cc(Nc3ccnc4cc(F)cnc34)ncc2F)CS(=O)(=O)[C@@](C)(C2CC2)C(N)=N1 | 8.77 | 8.07 | 5.31
6 | C[C@@]1(c2cc(Nc3ccnc4cccnc34)ncc2F)CS(=O)(=O)[C@@](C)(C2CC2)C(N)=N1 | 8.44 | 7.23 | < 5.03
7 | C[C@@]1(c2cc(Nc3ncnc4cc(C#N)cnc34)ncc2F)CS(=O)(=O)[C@@](C)(C2CC2)C(N)=N1 | 7.72 | 7.89 | < 5.03
8 | C[C@@]1(c2cc(Nc3nccc4cc(C#N)cnc34)ccc2F)CS(=O)(=O)[C@@](CF)(C2CC2)C(N)=N1 | 9.22 | 8.89 | 6.25

Results, then the compound that gave them:

Row | pKi [1] | pKi [2] | pKi [3] | SMILES
9 | 9.00 | 7.92 | < 5.03 | C[C@@]1(c2cc(Nc3nccc4cc(F)cnc34)ncc2F)CS(=O)(=O)[C@@](C)(C2CC2)C(N)=N1
10 | 7.28 | 7.40 | < 5.03 | COc1cnc2c(Nc3ccc(F)c([C@]4(C)CS(=O)(=O)[C@@](C)(C5CC5)C(N)=N4)c3)ccnc2n1
11 | 8.66 | 8.28 | < 5.03 | COc1cnc2c(Nc3cc([C@]4(C)CS(=O)(=O)[C@@](C)(C5CC5)C(N)=N4)c(F)cn3)ccnc2n1

— ChEMBL document CHEMBL5726333, “C2-carbocyclic iminothiazine dioxides as BACE inhibitors, compositions, and their use” (2017)
